The test system of assay [1] is A-431. The assay can be described thus: GI50 determination, cell viability (Alamar Blue or Cell Titer Glo). The following applies: Homo sapiens; A-431 cells; cell viability measured at days 3, 5 and 7; triplicate experiments. In kind it is cell-based. The protocol: (§1) COLO-792, SK-MEL-2, SK-MEL-28, IPC-298 and MEL-HO cells were cultured in RPMI media supplemented with 10% heat-inactivated and filtered FCS (hFCS). CHL-1, Hs852.T, G-361, RPMI-7951 and A-431 cells were cultured in DMEM media supplemented with 10% hFCS. HMCB cells were grown in MEM Earle's media containing 10% hFCS, 1 mM NaPyruvate, non-essential amino acids and 1 mM HEPES. Penicillin (at 50 I.U./mL), streptomycin (at 50 μg/mL), and L-glutamine (at 2 mM) or stable glutamine (supplied with the media) were additional ingredients in all culture media. All cells were grown in an incubator at 37° C. with 5% carbon dioxide.
(§2) Cells were counted and distributed to 96-well plates, with 1000-5000 cells per well. Each plate also contained wells with media alone for background measurements. Appropriate dilutions of BAY 123 or JQ1 were made in media in a titration series. When adherent cells were fully attached, media was removed and replaced with media containing BAY 123, JQ1, or DMSO as a control. Alternatively, appropriate volumes of BAY 123, JQ1 or DMSO were added to media using a dispenser (HP D300, Tecan).
(§3) Cell viability was measured at days 3, 5, and 7, with Alamar Blue (LifeTechnologies) staining and fluorescence detection (excitation 530nm, emission 590nm) in a microplate reader. Alternatively, Cell Titer Glo (Promega) was used, followed by luminescence detection. GI50 values were calculated from triplicate experiments using GraphPad prism software, using curves from plots of fluorescence or luminescence intensity vs. BAY 123 or JQ1 concentration in each cell line. […] Cell lines with a GI50 below 600 nM were defined as sensitive to BET inhibition.
(In general: Resazurin is reduced to fluorescent resorufin, in cell work by metabolically active cells.)

Assay [2] deals with CHL-1. The description is as above. In kind it is cell-based. The following applies: Homo sapiens; CHL-1 cells; cell viability measured at days 3, 5 and 7; triplicate experiments. The protocol: as §1, §2, §3
For assay [3], the system named is COLO-792. The assay is described as above. In kind it is cell-based. Conditions: Homo sapiens; COLO-792 cells; cell viability measured at days 3, 5 and 7; triplicate experiments. The protocol:
as §1, §2, §3

Assay [4] concerns G-361. The description is as above. In kind it is cell-based. Conditions: Homo sapiens; G-361 cells; cell viability measured at days 3, 5 and 7; triplicate experiments. The protocol: as §1, §2, §3
The subject of assay [5] is HMCB. The assay is described as above. In kind it is cell-based. The following applies: Homo sapiens; HMCB cells; cell viability measured at days 3, 5 and 7; triplicate experiments. The protocol:
as §1, §2, §3

The subject of assay [6] is Hs 852.T. Described as above. In kind it is cell-based. Conditions: Homo sapiens; Hs 852.T cells; cell viability measured at days 3, 5 and 7; triplicate experiments. The protocol: as §1, §2, §3
Assay [7] relates to IPC-298. Described as above. In kind it is cell-based. The following applies: Homo sapiens; IPC-298 cells; cell viability measured at days 3, 5 and 7; triplicate experiments. The protocol: as §1, §2, §3
In assay [8] the test system is MEL-HO. Described as above. In kind it is cell-based. Conditions: Homo sapiens; MEL-HO cells; cell viability measured at days 3, 5 and 7; triplicate experiments. The protocol:
as §1, §2, §3

Assay [9] relates to RPMI-7951. The assay is described as above. In kind it is cell-based. Conditions: Homo sapiens; RPMI-7951 cells; cell viability measured at days 3, 5 and 7; triplicate experiments. The protocol: as §1, §2, §3
For assay [10], the system named is SK-MEL-28. The description is as above. In kind it is cell-based. The following applies: Homo sapiens; SK-MEL-28 cells; cell viability measured at days 3, 5 and 7; triplicate experiments. The protocol:
as §1, §2, §3

Assay [11] concerns SK-MEL-2. The description is as above. The following applies: Homo sapiens; SK-MEL-2 cells; cell viability measured at days 3, 5 and 7; triplicate experiments. In kind it is cell-based. The protocol:
as §1, §2, §3

For assay [12], the system named is COLO-792. Briefly: Basal oxygen consumption rate (OCR), XF96 extracellular flux analyzer. In kind it is cell-based, human. Conditions: COLO-792 cells; FIG. 4.
Assay [13] relates to CHL-1. Described as above. In kind it is cell-based, human. The following applies: CHL-1 cells; 1 μM, 20 h pre-incubation; FIG. 4. The protocol:
(§4) The OCR in G-361, CHL-1, RPMI-7951 and SK-MEL-2 melanoma cells was measured using the XF96 extracellular flux analyzer (Seahorse Bioscience) under standard conditions and after pre-incubation with 1 μM BAY 123 or JQ1 inhibitor for 20 h. Baseline mitochondrial function and mitochondrial stress response were measured by OCR using the XF Mito Stress Test Kit with an XF96 extracellular flux analyzer (Seahorse Bioscience). […] The drug injection ports of the XF96 Assay Cartridge were loaded with assay reagents at a final concentration of 1 μM oligomycin (ATP synthase inhibitor), 0.5 μM FCCP (ionophore and mitochondrial uncoupler which disrupts proton gradient and ATP synthesis), 1 μM Rotenone (mitochondrial complex I inhibitor) and 1 μM Antimycin A (mitochondrial complex III inhibitor).
(§5) Briefly, cells treated with 1 μM BAY 123 or JQ1 inhibitor for 20 h were seeded in quadruplicate at equal densities (20,000-30,000 cells/well) into XF96 tissue culture plates (Seahorse Bioscience). Cell culture medium was changed 12 hours after cell seeding into unbuffered DMEM (8.3 g/l DMEM [Sigma], 2 mM Glutamax [Invitrogen] 5 mM Glucose [Sigma], 1.85 g/l NaCl [Sigma], adjusted to pH 7.4 with NaOH). Real-time measurements of OCR in […] in culture medium were conducted. OCR was measured over time at baseline and following consecutive injections of 1 μM Oligomycin, 0.5 μM FCCP and a mix of 1 μM Rotenone+1 μM Antimycin A. The basal mitochondrial OCR was calculated. The OCR values were normalized to cell numbers plated. To this end, the cells were stained using Cyquant (Life technologies) and fluorescence measurements were made using a microplate reader with excitation at 485 nm and emission detection at 530 nm [Tecan].

In assay [14] the test system is G-361. The assay is described as above. In kind it is cell-based, human. The following applies: G-361 cells; 1 μM, 20 h pre-incubation; FIG. 4. The protocol:
as §4, §5

Assay [15] relates to SK-MEL-2. The description is as above. In kind it is cell-based, human. The following applies: SK-MEL-2 cells; 1 μM, 20 h pre-incubation; FIG. 4. The protocol: as §4, §5
The test system of assay [16] is melanoma cell lines (G-361, CHL-1, RPMI-7951, SK-MEL-2). Briefly: Basal OCR, marker positive versus negative melanoma cell lines, XF96 analyzer. In kind it is cell-based, human. Conditions: 1 μM, 20 h treatment. The protocol: as §4
Briefly, cells treated with 1 μM BAY 123 or JQ1 inhibitor for 20 h were seeded in quadruplicate at equal densities (20,000-30,000 cells/well) into XF96 tissue culture plates (Seahorse Bioscience). […] OCR was measured over time at baseline and following consecutive injections of 1 μM Oligomycin, 0.5 μM FCCP and a mix of 1 μM Rotenone+1 μM Antimycin A. The basal mitochondrial OCR was calculated. […] To this end, the cells were stained using Cyquant (Life technologies) and fluorescence measurements were made using a microplate reader with excitation at 485 nm and emission detection at 530 nm [Tecan].

In general, GI50 refers to the concentration giving 50% growth inhibition. For `Cc1sc2c(c1C)C(c1ccc(Cl)cc1)=NC(CC(=O)OC(C)(C)C)c1nnc(C)n1-2` (racemic) [JQ1, [(R,S)-4-(4-Chlorophenyl)-2,3,9-trimethyl-6H-1-thia-5,7,8,9a-tetraaza-cyclopenta[e]azulen-6-yl]-acetic acid tert-butyl ester], the GI50 was found to be 720 nM in assay [1]; 60 nM in assay [2]; 50 nM in assay [3]; 240 nM in assay [4]; 330 nM in [5]; 7570 nM in [6]. Moreover, the GI50 was 60 nM in [7]; 190 nM in assay [8]; 1460 nM in assay [9]; 1760 nM in assay [10]; above 20000 nM in assay [11]. For the same molecule, the “basal OCR with versus without treatment” value in [12], in assay [13], in assay [14] and in assay [15] was “Reduction of basal OCR” each time. In addition, in [16], the “decrease of basal OCR in PPARGC1A, PPARGC1B, MITF positive melanoma (G-361, CHL-1) compared to negative melanoma cell lines (RPMI-7951, SK-MEL-2)” value is on record as “decreased more dramatically”.

Consider `CNC(=O)N1N=C(c2ccc(N3CCN(C)CC3)cc2)c2cc(OC)c(OC)cc2C[C@@H]1C` [BAY 123, (4S)-7,8-dimethoxy-N,4-dimethyl-1-[4-(4-methylpiperazin-1-yl)phenyl]-4,5-dihydro-3H-2,3-benzodiazepine-3-carboxamide], for which the GI50 in assay [1] worked out at 930 nM; in assay [2], 70 nM; in [3], 80 nM; in assay [4], 250 nM; in assay [5] it was 570 nM; in assay [6], 4440 nM. Besides, the GI50 in [7] was 150 nM; in assay [8] it was 470 nM; in assay [9] it was 2180 nM; in assay [10], 1260 nM; in [11], above 20000 nM. In addition, the “basal OCR with versus without treatment” value in [12], in [13], in assay [14] and in [15] was “Reduction of basal OCR” each time. Moreover, the “decrease of basal OCR in PPARGC1A, PPARGC1B, MITF positive melanoma (G-361, CHL-1) compared to negative melanoma cell lines (RPMI-7951, SK-MEL-2)” value in assay [16] was “decreased more dramatically”.

Source of the values: patent US20180164317A1, “METHOD FOR STRATIFICATION OF MELANOMA PATIENTS BY DETERMINATION OF OXYGEN CONSUMPTION, PPARGC1A, PPARGC1B AND MITF LEVELS” (Bayer Pharma Aktiengesellschaft, priority 2015, published 2018).
